Assay results taken from PubChem BioAssay (NCI).
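Step 1: Grow cells in 96-well plates. Step 2: Expose to compound for 48 hours at 5 concentrations. Step 3: Interpolate endpoints linearly; if unreached, use highest concentration. The concentration for 50% growth inhibition is given as GI50. TGI: concentration producing complete growth inhibition.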

What was measured:
Experiment in all cases: NCI anticancer screen, dose series, 48 h
A498 renal = tested on: A498 renal
ACHN renal = tested on: ACHN renal
BT-549 breast = tested on: BT-549 breast
CAKI-1 renal = tested on: CAKI-1 renal
CCRF-CEM leukemia = tested on: CCRF-CEM leukemia
DU-145 prostate = tested on: DU-145 prostate
EKVX NSCLC = tested on: EKVX NSCLC
HCC-2998 colon = tested on: HCC-2998 colon
HCT-15 colon = tested on: HCT-15 colon
HOP-92 NSCLC = tested on: HOP-92 NSCLC
IGROV1 ovarian = tested on: IGROV1 ovarian
KM12 colon = tested on: KM12 colon
LOX IMVI melanoma = tested on: LOX IMVI melanoma
MALME-3M melanoma = tested on: MALME-3M melanoma
MCF7 breast = tested on: MCF7 breast
MDA-MB-231 breast = tested on: MDA-MB-231 breast
MDA-MB-435 = tested on: MDA-MB-435
NCI-H23 lung = tested on: NCI-H23 lung
NCI-H460 lung = tested on: NCI-H460 lung
OVCAR-3 ovarian = tested on: OVCAR-3 ovarian
OVCAR-4 ovarian = tested on: OVCAR-4 ovarian
OVCAR-5 ovarian = tested on: OVCAR-5 ovarian
PC-3 prostate = tested on: PC-3 prostate
RXF 393 renal = tested on: RXF 393 renal
SF-268 CNS = tested on: SF-268 CNS
SF-295 CNS = tested on: SF-295 CNS
SF-539 CNS = tested on: SF-539 CNS
SK-MEL-2 melanoma = tested on: SK-MEL-2 melanoma
SK-MEL-28 melanoma = tested on: SK-MEL-28 melanoma
SK-MEL-5 melanoma = tested on: SK-MEL-5 melanoma
SN12C renal = tested on: SN12C renal
SNB-19 CNS = tested on: SNB-19 CNS
SNB-75 CNS = tested on: SNB-75 CNS
SR leukemia = tested on: SR leukemia
SW-620 colon = tested on: SW-620 colon
TK-10 renal = tested on: TK-10 renal
UACC-62 melanoma = tested on: UACC-62 melanoma
UO-31 renal = tested on: UO-31 renal

Structure (SMILES): CN1CCN(CCCOc2ccc3ncnc(Nc4ccc(OCc5cccc(F)c5)c(Cl)c4)c3c2)CC1
- GI50 (A498 renal): 1130 nM
- TGI (A498 renal): 2420 nM
- GI50 (ACHN renal): 639 nM
- TGI (ACHN renal): 1950 nM
- GI50 (BT-549 breast): 1580 nM
- TGI (BT-549 breast): 3000 nM
- GI50 (CAKI-1 renal): 1130 nM
- TGI (CAKI-1 renal): 2340 nM
- GI50 (CCRF-CEM leukemia): 1570 nM
- TGI (CCRF-CEM leukemia): 3530 nM
- GI50 (DU-145 prostate): 1100 nM
- TGI (DU-145 prostate): 2350 nM
- GI50 (EKVX NSCLC): 1140 nM
- TGI (EKVX NSCLC): 2470 nM
- GI50 (HCC-2998 colon): 1700 nM
- TGI (HCC-2998 colon): 3170 nM
- GI50 (HCT-15 colon): 1060 nM
- TGI (HCT-15 colon): 2350 nM
- GI50 (HOP-92 NSCLC): 1150 nM
- TGI (HOP-92 NSCLC): 2540 nM
- GI50 (IGROV1 ovarian): 1020 nM
- TGI (IGROV1 ovarian): 2550 nM
- GI50 (KM12 colon): 1730 nM
- TGI (KM12 colon): 3210 nM
- GI50 (LOX IMVI melanoma): 1750 nM
- TGI (LOX IMVI melanoma): 3230 nM
- GI50 (MALME-3M melanoma): 1650 nM
- TGI (MALME-3M melanoma): 3230 nM
- GI50 (MCF7 breast): 1500 nM
- TGI (MCF7 breast): 2960 nM
- GI50 (MDA-MB-231 breast): 1620 nM
- TGI (MDA-MB-231 breast): 3100 nM
- GI50 (MDA-MB-435): 1610 nM
- TGI (MDA-MB-435): 3110 nM
- GI50 (NCI-H23 lung): 1690 nM
- TGI (NCI-H23 lung): 3200 nM
- GI50 (NCI-H460 lung): 1780 nM
- TGI (NCI-H460 lung): 3380 nM
- GI50 (OVCAR-3 ovarian): 1480 nM
- TGI (OVCAR-3 ovarian): 2920 nM
- GI50 (OVCAR-4 ovarian): 1570 nM
- TGI (OVCAR-4 ovarian): 3350 nM
- GI50 (OVCAR-5 ovarian): 1600 nM
- TGI (OVCAR-5 ovarian): 3050 nM
- GI50 (PC-3 prostate): 1740 nM
- TGI (PC-3 prostate): 3390 nM
- GI50 (RXF 393 renal): 1580 nM
- TGI (RXF 393 renal): 3070 nM
- GI50 (SF-268 CNS): 1490 nM
- TGI (SF-268 CNS): 3150 nM
- GI50 (SF-295 CNS): 1770 nM
- TGI (SF-295 CNS): 3190 nM
- GI50 (SF-539 CNS): 1670 nM
- TGI (SF-539 CNS): 3090 nM
- GI50 (SK-MEL-2 melanoma): 2070 nM
- TGI (SK-MEL-2 melanoma): 4040 nM
- GI50 (SK-MEL-28 melanoma): 1720 nM
- TGI (SK-MEL-28 melanoma): 3190 nM
- GI50 (SK-MEL-5 melanoma): 1670 nM
- TGI (SK-MEL-5 melanoma): 3040 nM
- GI50 (SN12C renal): 1630 nM
- TGI (SN12C renal): 3100 nM
- GI50 (SNB-19 CNS): 1500 nM
- TGI (SNB-19 CNS): 2870 nM
- GI50 (SNB-75 CNS): 1380 nM
- TGI (SNB-75 CNS): 2710 nM
- GI50 (SR leukemia): 379 nM
- TGI (SR leukemia): 1790 nM
- GI50 (SW-620 colon): 1730 nM
- TGI (SW-620 colon): 3280 nM
- GI50 (TK-10 renal): 577 nM
- TGI (TK-10 renal): 2320 nM
- GI50 (UACC-62 melanoma): 1700 nM
- TGI (UACC-62 melanoma): 3240 nM
- GI50 (UO-31 renal): 1180 nM
- TGI (UO-31 renal): 2490 nM
